Data: US20140303198A1, “AGENT FOR INHIBITING EXPRESSION OF NPC1L1 AND/OR LIPG MRNA AND AGENT FOR PREVENTING AND/OR TREATING OBESITY” (KOWA COMPANY, LTD., priority 2011, published 2014)

Assays:
LIPG mRNA = test: DNA microarray gene expression profile in HepG2 cells (Test Example 2), LIPG; format: cell-based, human; details: 24 hours, treated vs untreated cells
Experimental: (§1) A compound of a test compound group was added to cells of a human hepatocellular carcinoma cell line HepG2, and the cells were then cultured for 24 hours. Thereafter, the gene expression profile was measured using the DNA microarray of Agilent. Specifically, the HepG2 cells were inoculated at a concentration of 2×10^5 cells/well into a 24-well plate, and were then cultured overnight. Thereafter, Compound 2 was dissolved in dimethyl sulfoxide (DMSO) to give concentrations of 1 μM and 10 μM, whereas Anacetrapib was dissolved in DMSO to give a concentration of […]. The thus prepared solution was added to the culture fluid in an amount of 1/1000-fold of the culture fluid. The cells were cultured at 37° C. for 24 hours in a CO2 incubator. Thereafter, 500 μL of ISOGEN (Nippon Gene Co., Ltd., Catalog No. 31-02501) was added to the culture, and total RNA was then extracted. Cy3-labeled cRNA was synthesized from 200 ng of the RNA using Low Input Quick Amp Labeling Kit (Agilent, Catalog No. 5190-2308). The synthesized Cy3-labeled cRNA was hybridized to Whole Human Genome (4×44K) (Agilent, Catalog No. G4110F), using GE Hybridization Buffer HI-RPM (Agilent, Catalog No. 5190-0403). After completion of the hybridization, the DNA microarray was washed with Gene Expression Wash Buffer (Agilent, Catalog No. 5188-5327), and data were then scanned with a scanner (Agilent).
(§2) The analysis was carried out using GeneSpring (Agilent), and the change rate of the expression level of each gene was calculated.
(§3) (Change rate)=(Expression level of each gene in cells treated with compound)[…](Expression level of each gene in cells untreated with compound)

NPC1L1 mRNA = test: DNA microarray gene expression profile in HepG2 cells (Test Example 2), NPC1L1; format: cell-based, human; details: 24 hours, treated vs untreated cells
Experimental: as §1, §2, §3

Structure (SMILES)	Change rate (fold) of LIPG expression level (LIPG mRNA; 10 μM) [fold]	Change rate (fold) of NPC1L1 expression level (NPC1L1 mRNA; 10 μM) [fold]	Change rate (fold) of LIPG expression level (LIPG mRNA; 1 μM) [fold]	Change rate (fold) of NPC1L1 expression level (NPC1L1 mRNA; 1 μM) [fold]
COc1cc(F)c(C(C)C)cc1-c1ccc(C(F)(F)F)cc1CN1C(=O)O[C@H](c2cc(C(F)(F)F)cc(C(F)(F)F)c2)[C@@H]1C [Anacetrapib, (4S,5R)-5-[3,5-bis(trifluoromethyl)phenyl]-3-((4′-fluoro-5′-isopropyl-2′-methoxy-4-(trifluoromethyl)-[1,1′-biphenyl]-2-yl)methyl)-4-methyloxazolidin-2-one, reference compound]	−1.9	−1.5		
CCN(C[C@H]1CC[C@H](CC(=O)O)CC1)c1ccc(C(F)(F)F)cc1CN(c1ncc(OCCS(C)(=O)=O)cn1)[C@@H](C)c1cc(C(F)(F)F)cc(C(F)(F)F)c1 [Compound 2, (S)-(−)-trans-{4-[({2-[({1-[3,5-bis(trifluoromethyl)phenyl]ethyl}{5-[2-(methylsulfonyl)ethoxy]pyrimidin-2-yl}amino)methyl]-4-(trifluoromethyl)phenyl}(ethyl)amino)methyl]cyclohexyl}ac etic acid]	−6.2	−3.1	−2.5	−2.3
